The source made the active and inactive calls. The calls are words filed in the database; no cut-off is given here.
Columns and labels:
Assay type in all cases: cell-based
[1] = biological target: T1, Retinoic acid receptor RXR-beta (Homo sapiens) (UniProt P28702); assay: Agonist activity at human Gal4-DBD fused RXRbeta LBD expressed in HEK293T cells after 12 to 14 hrs by luciferase reporter gene assay relative to bexarotene
T1 sequence (whole entry): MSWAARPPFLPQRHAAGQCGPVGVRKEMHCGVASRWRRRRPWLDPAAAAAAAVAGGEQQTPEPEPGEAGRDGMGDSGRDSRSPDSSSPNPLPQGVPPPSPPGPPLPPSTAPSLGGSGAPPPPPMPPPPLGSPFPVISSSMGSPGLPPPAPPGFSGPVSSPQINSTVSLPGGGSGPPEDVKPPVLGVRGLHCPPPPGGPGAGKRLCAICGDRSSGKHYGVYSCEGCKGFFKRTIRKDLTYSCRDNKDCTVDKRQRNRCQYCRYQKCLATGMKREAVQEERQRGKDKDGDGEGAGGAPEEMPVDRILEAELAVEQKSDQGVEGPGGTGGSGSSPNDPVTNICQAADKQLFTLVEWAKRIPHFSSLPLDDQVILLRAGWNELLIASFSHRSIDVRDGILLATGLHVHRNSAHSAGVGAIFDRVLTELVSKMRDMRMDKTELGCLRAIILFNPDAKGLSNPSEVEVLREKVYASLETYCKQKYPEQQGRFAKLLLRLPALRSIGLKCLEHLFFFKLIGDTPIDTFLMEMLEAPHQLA

[2] = biological target: T2, Retinoic acid receptor RXR-alpha (Homo sapiens, UniProt P19793); assay: Agonist activity at human Gal4-DBD fused RXRalpha LBD expressed in HEK293T cells after 12 to 14 hrs by luciferase reporter gene assay
T2 sequence (P19793 whole entry): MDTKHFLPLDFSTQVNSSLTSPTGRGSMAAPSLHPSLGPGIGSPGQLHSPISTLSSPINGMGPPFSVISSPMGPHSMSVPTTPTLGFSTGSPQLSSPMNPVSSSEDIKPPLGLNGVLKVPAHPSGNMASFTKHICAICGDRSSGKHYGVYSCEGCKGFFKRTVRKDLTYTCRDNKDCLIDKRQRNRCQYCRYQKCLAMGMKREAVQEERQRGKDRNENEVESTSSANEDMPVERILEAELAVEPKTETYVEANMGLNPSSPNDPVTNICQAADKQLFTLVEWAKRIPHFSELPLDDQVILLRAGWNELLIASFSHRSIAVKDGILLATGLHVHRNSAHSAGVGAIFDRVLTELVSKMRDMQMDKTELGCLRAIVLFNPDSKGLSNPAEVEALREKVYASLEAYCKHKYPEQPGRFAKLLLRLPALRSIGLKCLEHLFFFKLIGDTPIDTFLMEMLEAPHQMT

[3] = biological target: T3, Retinoic acid receptor RXR-beta (Homo sapiens, UniProt P28702); assay: Agonist activity at human Gal4-DBD fused RXRbeta LBD expressed in HEK293T cells after 12 to 14 hrs by luciferase reporter gene assay
T3 sequence (P28702 whole entry): T1 sequence (whole entry)

[4] = biological target: T4, Retinoic acid receptor RXR-gamma (Homo sapiens) (UniProt P48443); assay: Agonist activity at human Gal4-DBD fused RXRgamma LBD expressed in HEK293T cells after 12 to 14 hrs by luciferase reporter gene assay relative to bexarotene
T4 sequence (whole entry): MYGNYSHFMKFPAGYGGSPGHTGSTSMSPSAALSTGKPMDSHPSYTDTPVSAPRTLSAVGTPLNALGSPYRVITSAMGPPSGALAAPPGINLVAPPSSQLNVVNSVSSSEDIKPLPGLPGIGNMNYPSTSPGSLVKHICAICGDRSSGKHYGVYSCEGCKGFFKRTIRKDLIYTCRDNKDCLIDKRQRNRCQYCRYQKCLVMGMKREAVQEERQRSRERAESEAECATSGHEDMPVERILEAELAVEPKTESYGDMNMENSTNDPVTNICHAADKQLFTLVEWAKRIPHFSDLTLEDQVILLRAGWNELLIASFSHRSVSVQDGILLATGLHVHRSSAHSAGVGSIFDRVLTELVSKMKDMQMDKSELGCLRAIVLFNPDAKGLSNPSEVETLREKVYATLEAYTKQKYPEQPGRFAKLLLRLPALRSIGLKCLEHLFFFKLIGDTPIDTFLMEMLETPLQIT

[5] = biological target: T5, Retinoic acid receptor RXR-alpha (Homo sapiens) (UniProt P19793); assay: Agonist activity at human Gal4-DBD fused RXRalpha LBD expressed in HEK293T cells after 12 to 14 hrs by luciferase reporter gene assay relative to bexarotene
T5 sequence (whole entry): T2 sequence (P19793 whole entry)

[6] = biological target: T6, Retinoic acid receptor RXR-gamma (Homo sapiens, UniProt P48443); assay: Agonist activity at human Gal4-DBD fused RXRgamma LBD expressed in HEK293T cells after 12 to 14 hrs by luciferase reporter gene assay
T6 sequence (P48443 whole entry): T4 sequence (whole entry)

[7] = biological target: T4, Retinoic acid receptor RXR-gamma (Homo sapiens); assay: Agonist activity at human Gal4-DBD fused RXRgamma LBD expressed in HEK293T cells at 30 uM after 12 to 14 hrs by luciferase reporter gene assay
[8] = biological target: T5, Retinoic acid receptor RXR-alpha (Homo sapiens); assay: Agonist activity at human Gal4-DBD fused RXRalpha LBD expressed in HEK293T cells at 10 uM after 12 to 14 hrs by luciferase reporter gene assay

Structure (SMILES): CC(C)(C)c1ccccc1OCc1ccc(C(=O)O)cc1
- Emax [1]: 12%
- EC50 ([2]; read-out: EC50): 0.16 µM
- EC50 ([3]; read-out: EC50): 0.37 µM
- Emax [4]: 21%
- Emax [5]: 11%
- EC50 ([6]; read-out: EC50): 1.1 µM

Structure (SMILES): O=C(O)c1ccc(OCc2ccccc2-c2ccccc2)cc1
- EC50 ([2]; read-out: EC50): > 30 µM
- EC50 ([3]; read-out: EC50): > 30 µM
- EC50 [6]: Nd(Toxic)

Structure (SMILES): O=C(O)c1ccccc1COc1ccc2c(c1)CCC2
- EC50 ([2]; read-out: EC50): > 30 µM
- EC50 ([3]; read-out: EC50): > 30 µM
- EC50 ([6]; read-out: EC50): > 30 µM

Structure (SMILES): O=C(O)c1ccc(COc2ccccc2)cc1
- EC50 ([2]; read-out: EC50): > 30 µM
- EC50 ([3]; read-out: EC50): > 30 µM
- EC50 ([6]; read-out: EC50): > 30 µM

Structure (SMILES): Cc1ccccc1OCc1ccc(C(=O)O)cc1
- Emax [1]: 27%
- EC50 ([2]; read-out: EC50): 5 µM
- EC50 ([3]; read-out: EC50): 8.6 µM
- Emax [4]: 19%
- Emax [5]: 24%
- EC50 ([6]; read-out: EC50): 19 µM

Structure (SMILES): O=C(O)c1ccc(COc2ccc(C(F)(F)F)cc2C(F)(F)F)cc1
- Emax [1]: 66%
- EC50 ([2]; read-out: EC50): 6 µM
- EC50 ([3]; read-out: EC50): 4.3 µM
- Emax [4]: 49%
- Emax [5]: 118%
- EC50 ([6]; read-out: EC50): 11 µM

Structure (SMILES): CC(C)(C)c1ccc(OCc2ccc(C(=O)O)cc2)c(Cl)c1
- Emax [1]: 36%
- EC50 ([2]; read-out: EC50): 4.2 µM
- EC50 ([3]; read-out: EC50): 5.3 µM
- Emax [4]: 14%
- Emax [5]: 37%
- EC50 ([6]; read-out: EC50): 4 µM

Structure (SMILES): Cc1ccc(OCc2ccc(C(=O)O)cc2)c(-c2ccccc2)c1
- EC50 ([2]; read-out: EC50): > 30 µM
- EC50 ([3]; read-out: EC50): > 30 µM
- EC50 [6]: Nd(Toxic)

Structure (SMILES): CC(C)(C)c1ccc(OCc2ccc(C(=O)O)cc2)c(-c2ccccc2)c1
- EC50 ([2]; read-out: EC50): > 30 µM
- EC50 ([3]; read-out: EC50): > 30 µM
- EC50 ([6]; read-out: EC50): > 30 µM

Structure (SMILES): CC(C)c1ccc(OCc2ccc(C(=O)O)cc2)cc1
- Emax [1]: 9.5%
- EC50 ([2]; read-out: EC50): 16 µM
- EC50 ([3]; read-out: EC50): 16 µM
- Emax [5]: 11%
- Activity [7]: inactive

Structure (SMILES): O=C(O)c1ccc(CNc2ccc3c(c2)CCC3)cc1
- EC50 ([2]; read-out: EC50): > 30 µM
- EC50 ([3]; read-out: EC50): > 30 µM
- EC50 ([6]; read-out: EC50): > 30 µM

Structure (SMILES): O=C(O)c1ccc(OCc2ccc3c(c2)CCC3)cc1
- Emax [1]: 25%
- EC50 ([2]; read-out: EC50): > 30 µM
- EC50 ([3]; read-out: EC50): 21 µM
- EC50 ([6]; read-out: EC50): > 30 µM

Structure (SMILES): O=C(O)c1ccc(COc2cccc(Cl)c2)cc1
- Emax [1]: 26%
- EC50 ([2]; read-out: EC50): 17 µM
- EC50 ([3]; read-out: EC50): 20 µM
- Emax [4]: 9.3%
- Emax [5]: 54%
- EC50 ([6]; read-out: EC50): 44 µM

Structure (SMILES): CN(Cc1ccc(C(=O)O)cc1)c1ccc2c(c1)CCC2
- Emax [1]: 15%
- EC50 ([2]; read-out: EC50): 10 µM
- EC50 ([3]; read-out: EC50): 9.9 µM
- Emax [4]: 8.5%
- Emax [5]: 22%
- EC50 ([6]; read-out: EC50): 30 µM

Structure (SMILES): O=C(O)Cc1ccc(COc2ccc3c(c2)CCC3)cc1
- Emax [1]: 9.9%
- EC50 ([2]; read-out: EC50): 13 µM
- EC50 ([3]; read-out: EC50): 18 µM
- Emax [4]: 8.8%
- Emax [5]: 47%
- EC50 ([6]; read-out: EC50): 22 µM

Structure (SMILES): O=C(O)c1ccc(COc2ccccc2F)cc1
- EC50 ([2]; read-out: EC50): > 30 µM
- EC50 ([3]; read-out: EC50): > 30 µM
- EC50 ([6]; read-out: EC50): > 30 µM

Structure (SMILES): COc1ccccc1OCc1ccc(C(=O)O)cc1
- EC50 ([2]; read-out: EC50): 29 µM
- EC50 ([3]; read-out: EC50): > 30 µM
- Emax [5]: 21%
- EC50 ([6]; read-out: EC50): > 30 µM

Structure (SMILES): CC(C)(C)c1ccc(OCc2ccc(C(=O)O)cc2)cc1
- Emax [1]: 15%
- Activity [8]: Active
- EC50 ([2]; read-out: EC50): 7.8 µM
- EC50 ([3]; read-out: EC50): 8.9 µM
- Emax [5]: 16%
- EC50 ([6]; read-out: EC50): > 30 µM

Structure (SMILES): O=C(O)c1ccc(COc2ccc(I)cc2)cc1
- Emax [1]: 25%
- EC50 ([2]; read-out: EC50): 24 µM
- EC50 ([3]; read-out: EC50): 29 µM
- Emax [5]: 19%
- EC50 ([6]; read-out: EC50): > 30 µM

Structure (SMILES): O=C(O)c1ccc(COc2ccc(Br)cc2)cc1
- Emax [1]: 36%
- EC50 ([2]; read-out: EC50): 40 µM
- EC50 ([3]; read-out: EC50): 48 µM
- Emax [5]: 21%
- EC50 ([6]; read-out: EC50): > 30 µM

Structure (SMILES): O=C(O)c1ccc(COc2ccccc2C(F)(F)F)cc1
- Emax [1]: 22%
- EC50 ([2]; read-out: EC50): 1.1 µM
- EC50 ([3]; read-out: EC50): 2.1 µM
- Emax [4]: 52%
- Emax [5]: 22%
- EC50 ([6]; read-out: EC50): 10 µM

Structure (SMILES): O=C(O)CCCc1ccc(COc2ccc3c(c2)CCC3)cc1
- EC50 [2]: Nd(Toxic)
- EC50 [3]: Nd(Toxic)
- EC50 [6]: Nd(Toxic)

Structure (SMILES): O=C(O)CCc1ccc(COc2ccc3c(c2)CCC3)cc1
- Emax [1]: 29%
- EC50 ([2]; read-out: EC50): 6.7 µM
- EC50 ([3]; read-out: EC50): 10 µM
- Emax [4]: 19%
- Emax [5]: 28%
- EC50 ([6]; read-out: EC50): 21 µM

Structure (SMILES): CC(C)(C)c1ccc(OCc2ccc(C(=O)O)cc2)c(C(C)(C)C)c1
- EC50 [2]: Nd(Toxic)
- EC50 [3]: Nd(Toxic)
- EC50 [6]: Nd(Toxic)

Structure (SMILES): O=C(O)c1ccc(COc2ccccc2Cl)cc1
- Emax [1]: 31%
- EC50 ([2]; read-out: EC50): 9.9 µM
- EC50 ([3]; read-out: EC50): 8.3 µM
- Emax [5]: 58%
- EC50 ([6]; read-out: EC50): > 30 µM

Structure (SMILES): O=C(O)c1ccc(COc2ccc(Cl)cc2)cc1
- EC50 ([2]; read-out: EC50): > 30 µM
- EC50 ([3]; read-out: EC50): > 30 µM
- EC50 ([6]; read-out: EC50): > 30 µM

Structure (SMILES): O=C(O)c1ccc(COc2cc3c(cc2-c2ccccc2)CCC3)cc1
- EC50 ([2]; read-out: EC50): > 30 µM
- EC50 ([3]; read-out: EC50): > 30 µM
- EC50 ([6]; read-out: EC50): > 30 µM

Structure (SMILES): CCc1ccc(OCc2ccc(C(=O)O)cc2)cc1
- Emax [1]: 7.4%
- EC50 ([2]; read-out: EC50): 28 µM
- EC50 ([3]; read-out: EC50): 35 µM
- Emax [5]: 11%
- Activity [7]: inactive

Structure (SMILES): O=C(O)c1ccc(COc2ccccc2OC(F)(F)F)cc1
- Emax [1]: 18%
- EC50 ([2]; read-out: EC50): 1.1 µM
- EC50 ([3]; read-out: EC50): 1.9 µM
- Emax [4]: 25%
- Emax [5]: 26%
- EC50 ([6]; read-out: EC50): 4.2 µM

Structure (SMILES): O=C(O)c1ccc(OCc2cccc(Cl)c2)cc1
- Emax [1]: 24%
- EC50 ([2]; read-out: EC50): 27 µM
- EC50 ([3]; read-out: EC50): 28 µM
- Emax [4]: 29%
- Emax [5]: 27%
- EC50 ([6]; read-out: EC50): 29 µM

From ChEMBL document CHEMBL4330185, “Computer-Assisted Discovery and Structural Optimization of a Novel Retinoid X Receptor Agonist Chemotype” (ACS Med Chem Lett, 2019)
